The values below come from ChEMBL document CHEMBL1139192, “Novel bis(indolyl)maleimide pyridinophanes that are potent, selective inhibitors of glycogen synthase kinase-3” (Bioorg Med Chem Lett, 2007).

In assay [1] the target is Insulin receptor (Homo sapiens) (UniProt P06213). Nature of the assay: Residual activity of human IR at 1 uM relative to control.
Assay [2] has as its target Protein kinase C beta type (Homo sapiens, UniProt P05771). The assay is described as follows: Inhibition of human recombinant PKCbeta2.
In assay [3] the target is T1, Ephrin type-B receptor 4 (Homo sapiens) (UniProt P54760).
T1 sequence (whole entry): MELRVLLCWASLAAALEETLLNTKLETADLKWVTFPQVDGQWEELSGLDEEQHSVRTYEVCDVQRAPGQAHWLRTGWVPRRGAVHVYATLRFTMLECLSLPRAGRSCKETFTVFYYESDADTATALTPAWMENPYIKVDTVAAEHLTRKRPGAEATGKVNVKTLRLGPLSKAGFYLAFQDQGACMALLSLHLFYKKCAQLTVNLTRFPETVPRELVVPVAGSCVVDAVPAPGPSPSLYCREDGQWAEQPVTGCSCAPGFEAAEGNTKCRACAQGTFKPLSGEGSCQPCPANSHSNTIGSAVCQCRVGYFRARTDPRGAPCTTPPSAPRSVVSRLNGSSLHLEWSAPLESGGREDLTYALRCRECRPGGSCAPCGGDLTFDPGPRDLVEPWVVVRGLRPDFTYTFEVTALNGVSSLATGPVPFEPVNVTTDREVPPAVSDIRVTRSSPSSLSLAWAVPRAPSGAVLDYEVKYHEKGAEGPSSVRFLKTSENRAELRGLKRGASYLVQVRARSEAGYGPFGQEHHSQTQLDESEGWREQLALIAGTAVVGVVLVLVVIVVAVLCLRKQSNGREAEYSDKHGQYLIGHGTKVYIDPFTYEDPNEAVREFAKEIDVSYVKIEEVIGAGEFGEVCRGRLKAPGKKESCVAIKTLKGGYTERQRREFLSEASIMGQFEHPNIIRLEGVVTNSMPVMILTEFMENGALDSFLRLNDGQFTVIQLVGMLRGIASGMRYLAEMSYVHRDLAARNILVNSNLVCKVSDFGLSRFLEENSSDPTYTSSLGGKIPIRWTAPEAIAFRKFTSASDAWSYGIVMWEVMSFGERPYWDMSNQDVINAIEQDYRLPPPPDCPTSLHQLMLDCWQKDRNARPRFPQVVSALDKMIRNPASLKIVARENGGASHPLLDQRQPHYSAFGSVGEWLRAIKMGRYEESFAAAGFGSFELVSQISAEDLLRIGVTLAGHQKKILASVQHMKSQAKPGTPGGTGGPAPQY
Nature of the assay: Residual activity of human EphB4 at 1 uM relative to control.

Assay [4] addresses Proto-oncogene tyrosine-protein kinase ROS (Homo sapiens) (UniProt P08922). The assay is described as follows: Inhibition of human Ros kinase at 1 uM relative to control; values are per cent of control.
The target in assay [5] is Tyrosine-protein kinase Lyn (Homo sapiens) (UniProt P07948). The assay is described as follows: Inhibition of human Lyn at 1 uM relative to control; values are per cent of control.
Assay [6] concerns the target T2, Inhibitor of nuclear factor kappa-B kinase subunit alpha (Homo sapiens) (UniProt O15111).
T2 sequence (whole entry): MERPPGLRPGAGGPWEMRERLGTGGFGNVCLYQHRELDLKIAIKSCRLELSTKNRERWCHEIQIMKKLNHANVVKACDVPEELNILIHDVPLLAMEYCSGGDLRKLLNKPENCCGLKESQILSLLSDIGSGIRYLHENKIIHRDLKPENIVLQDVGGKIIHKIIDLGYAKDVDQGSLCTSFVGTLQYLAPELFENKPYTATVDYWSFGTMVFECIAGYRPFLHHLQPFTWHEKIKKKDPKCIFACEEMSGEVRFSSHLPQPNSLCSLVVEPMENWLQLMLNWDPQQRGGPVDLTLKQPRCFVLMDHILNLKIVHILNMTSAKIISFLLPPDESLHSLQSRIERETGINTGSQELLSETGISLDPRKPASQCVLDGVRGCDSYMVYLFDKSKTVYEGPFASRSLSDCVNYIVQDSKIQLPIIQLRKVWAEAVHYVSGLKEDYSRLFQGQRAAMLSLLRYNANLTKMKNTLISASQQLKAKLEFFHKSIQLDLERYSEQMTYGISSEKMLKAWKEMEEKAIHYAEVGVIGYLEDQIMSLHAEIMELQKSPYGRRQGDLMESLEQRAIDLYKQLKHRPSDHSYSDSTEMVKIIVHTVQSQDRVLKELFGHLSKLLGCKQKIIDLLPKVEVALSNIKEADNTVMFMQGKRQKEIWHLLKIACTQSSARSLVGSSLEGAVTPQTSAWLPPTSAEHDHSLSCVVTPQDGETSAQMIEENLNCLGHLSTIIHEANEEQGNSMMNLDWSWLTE
The assay is described as follows: Residual activity of human IKKalpha at 1 uM relative to control.

Assay [7] has as its target Casein kinase I isoform delta (Homo sapiens) (UniProt P48730). Nature of the assay: Inhibition of CK1delta at 1 uM relative to control; values are per cent of control.
For assay [8], the target named is T3, Dual specificity mitogen-activated protein kinase kinase 4 (Mus musculus) (UniProt P47809).
T3 sequence (whole entry): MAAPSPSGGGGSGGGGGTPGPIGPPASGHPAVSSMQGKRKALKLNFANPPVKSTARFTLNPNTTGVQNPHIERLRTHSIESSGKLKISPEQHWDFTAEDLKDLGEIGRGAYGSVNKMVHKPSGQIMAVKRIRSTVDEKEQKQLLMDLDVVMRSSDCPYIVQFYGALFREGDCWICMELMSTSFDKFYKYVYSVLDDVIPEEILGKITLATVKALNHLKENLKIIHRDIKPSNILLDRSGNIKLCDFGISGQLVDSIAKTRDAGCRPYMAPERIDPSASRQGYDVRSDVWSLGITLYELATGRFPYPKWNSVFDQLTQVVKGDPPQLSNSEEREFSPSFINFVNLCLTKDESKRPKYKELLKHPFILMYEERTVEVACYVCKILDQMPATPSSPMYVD
Nature of the assay: Inhibition of mouse MKK4 Met at 1 uM relative to control; values are per cent of control.

The target in assay [9] is Tyrosine-protein kinase BTK (Homo sapiens) (UniProt Q06187). Nature of the assay: Inhibition of human BTK at 1 uM relative to control; values are per cent of control.
The species entered for assay [10] is Homo sapiens. Nature of the assay: Residual activity of human CDK1/Cyclin B at 1 uM relative to control.
The species named for a further assay is Rattus norvegicus. Nature of the assay: Inhibition of rat AMPK at 1 uM relative to control; values are per cent of control.
For assay [11], the species on record is Homo sapiens. The assay is described as follows: Inhibition of human CDK7/Cyclin H at 1 uM relative to control; values are per cent of control.
The nature of assay [12]: Inhibition of MEK1 at 1 uM relative to control; values are per cent of control. The conditions noted are these: Homo sapiens.

The structures appear in SMILES notation.

Casein kinase I isoform delta (Homo sapiens), sequence (P48730 whole entry, looked up, canonical isoform): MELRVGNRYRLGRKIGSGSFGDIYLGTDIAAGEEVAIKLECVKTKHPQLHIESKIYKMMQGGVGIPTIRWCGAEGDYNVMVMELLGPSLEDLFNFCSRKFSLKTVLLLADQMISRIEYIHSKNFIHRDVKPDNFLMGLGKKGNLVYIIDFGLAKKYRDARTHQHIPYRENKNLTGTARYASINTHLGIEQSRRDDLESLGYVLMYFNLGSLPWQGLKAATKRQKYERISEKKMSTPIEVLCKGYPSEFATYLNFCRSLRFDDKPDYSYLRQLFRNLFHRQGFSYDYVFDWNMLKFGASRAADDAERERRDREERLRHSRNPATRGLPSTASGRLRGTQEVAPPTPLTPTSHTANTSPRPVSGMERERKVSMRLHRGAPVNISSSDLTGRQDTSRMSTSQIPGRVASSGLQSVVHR
Tyrosine-protein kinase BTK (Homo sapiens), sequence (Q06187 whole entry): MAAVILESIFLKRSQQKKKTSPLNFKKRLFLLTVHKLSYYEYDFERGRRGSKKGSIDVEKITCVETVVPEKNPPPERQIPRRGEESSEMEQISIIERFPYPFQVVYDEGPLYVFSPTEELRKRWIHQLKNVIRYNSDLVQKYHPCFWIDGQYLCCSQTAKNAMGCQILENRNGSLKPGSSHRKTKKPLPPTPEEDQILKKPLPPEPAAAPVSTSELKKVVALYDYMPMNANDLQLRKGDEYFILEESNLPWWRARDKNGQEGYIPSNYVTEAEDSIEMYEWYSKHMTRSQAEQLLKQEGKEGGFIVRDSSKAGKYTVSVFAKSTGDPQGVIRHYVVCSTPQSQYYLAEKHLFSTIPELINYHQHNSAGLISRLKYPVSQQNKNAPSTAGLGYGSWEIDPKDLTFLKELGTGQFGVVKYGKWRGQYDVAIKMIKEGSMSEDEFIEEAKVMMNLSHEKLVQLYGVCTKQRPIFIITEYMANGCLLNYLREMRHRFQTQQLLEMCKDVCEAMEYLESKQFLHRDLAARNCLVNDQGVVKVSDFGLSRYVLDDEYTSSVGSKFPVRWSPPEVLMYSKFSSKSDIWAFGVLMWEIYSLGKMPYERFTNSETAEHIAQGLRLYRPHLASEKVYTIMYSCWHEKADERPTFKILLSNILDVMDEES
Proto-oncogene tyrosine-protein kinase ROS (Homo sapiens), sequence (P08922 whole entry): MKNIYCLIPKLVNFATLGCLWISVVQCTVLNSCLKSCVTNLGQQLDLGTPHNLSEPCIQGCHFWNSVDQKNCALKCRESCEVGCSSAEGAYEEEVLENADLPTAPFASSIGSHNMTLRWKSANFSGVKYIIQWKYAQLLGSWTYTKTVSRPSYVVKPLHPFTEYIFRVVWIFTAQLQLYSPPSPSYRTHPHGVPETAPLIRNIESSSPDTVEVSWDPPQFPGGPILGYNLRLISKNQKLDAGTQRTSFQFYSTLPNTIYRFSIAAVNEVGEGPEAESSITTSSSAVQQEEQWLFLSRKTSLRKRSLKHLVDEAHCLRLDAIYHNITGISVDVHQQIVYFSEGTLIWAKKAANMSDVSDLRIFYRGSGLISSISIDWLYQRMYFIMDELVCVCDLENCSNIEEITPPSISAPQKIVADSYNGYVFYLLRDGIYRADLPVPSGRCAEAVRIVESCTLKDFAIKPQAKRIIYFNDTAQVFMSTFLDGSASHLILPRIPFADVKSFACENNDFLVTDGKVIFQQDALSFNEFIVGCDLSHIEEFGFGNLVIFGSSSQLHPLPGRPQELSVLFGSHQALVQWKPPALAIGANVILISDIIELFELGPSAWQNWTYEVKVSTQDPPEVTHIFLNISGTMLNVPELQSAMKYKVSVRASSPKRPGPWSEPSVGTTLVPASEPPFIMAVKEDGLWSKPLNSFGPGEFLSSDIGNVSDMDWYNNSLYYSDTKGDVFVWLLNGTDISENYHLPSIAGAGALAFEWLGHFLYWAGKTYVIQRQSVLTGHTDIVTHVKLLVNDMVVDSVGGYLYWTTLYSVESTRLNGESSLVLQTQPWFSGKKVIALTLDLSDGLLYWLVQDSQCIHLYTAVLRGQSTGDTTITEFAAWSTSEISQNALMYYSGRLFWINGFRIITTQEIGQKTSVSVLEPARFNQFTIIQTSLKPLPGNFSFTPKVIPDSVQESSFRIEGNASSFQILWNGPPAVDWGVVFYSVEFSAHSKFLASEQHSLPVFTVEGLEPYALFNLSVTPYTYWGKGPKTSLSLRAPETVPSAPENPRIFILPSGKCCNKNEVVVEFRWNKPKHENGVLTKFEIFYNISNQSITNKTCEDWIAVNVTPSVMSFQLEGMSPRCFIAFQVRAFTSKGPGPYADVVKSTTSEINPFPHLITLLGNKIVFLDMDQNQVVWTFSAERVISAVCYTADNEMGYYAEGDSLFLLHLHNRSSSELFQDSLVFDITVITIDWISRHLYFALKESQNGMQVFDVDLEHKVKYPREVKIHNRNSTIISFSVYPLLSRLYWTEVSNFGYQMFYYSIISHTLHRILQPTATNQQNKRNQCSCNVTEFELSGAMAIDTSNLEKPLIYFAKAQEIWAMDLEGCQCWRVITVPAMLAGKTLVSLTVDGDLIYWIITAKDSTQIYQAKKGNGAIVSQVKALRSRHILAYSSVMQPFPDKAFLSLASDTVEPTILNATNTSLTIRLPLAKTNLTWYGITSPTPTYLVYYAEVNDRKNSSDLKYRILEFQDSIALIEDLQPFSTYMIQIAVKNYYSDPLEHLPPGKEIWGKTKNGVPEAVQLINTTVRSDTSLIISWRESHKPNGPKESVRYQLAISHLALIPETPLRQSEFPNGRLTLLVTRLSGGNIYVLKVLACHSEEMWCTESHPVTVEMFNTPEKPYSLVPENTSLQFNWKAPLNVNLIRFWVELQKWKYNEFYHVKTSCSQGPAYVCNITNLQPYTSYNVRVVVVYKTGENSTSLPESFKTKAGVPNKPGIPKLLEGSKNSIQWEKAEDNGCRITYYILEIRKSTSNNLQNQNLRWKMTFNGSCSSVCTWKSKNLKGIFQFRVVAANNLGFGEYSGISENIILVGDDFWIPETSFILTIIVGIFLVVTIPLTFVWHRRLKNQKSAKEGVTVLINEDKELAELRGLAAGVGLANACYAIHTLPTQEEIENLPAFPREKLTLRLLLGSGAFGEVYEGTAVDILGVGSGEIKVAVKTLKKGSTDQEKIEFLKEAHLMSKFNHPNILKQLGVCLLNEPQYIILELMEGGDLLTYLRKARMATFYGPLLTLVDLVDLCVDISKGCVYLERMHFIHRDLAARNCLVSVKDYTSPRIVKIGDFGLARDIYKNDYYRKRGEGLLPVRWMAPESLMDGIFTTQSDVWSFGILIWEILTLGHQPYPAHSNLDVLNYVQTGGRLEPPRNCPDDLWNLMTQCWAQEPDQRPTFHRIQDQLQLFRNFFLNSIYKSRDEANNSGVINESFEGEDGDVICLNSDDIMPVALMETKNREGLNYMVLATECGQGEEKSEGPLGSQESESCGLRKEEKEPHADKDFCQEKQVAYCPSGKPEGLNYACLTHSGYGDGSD
Insulin receptor (Homo sapiens), sequence (P06213 whole entry, looked up): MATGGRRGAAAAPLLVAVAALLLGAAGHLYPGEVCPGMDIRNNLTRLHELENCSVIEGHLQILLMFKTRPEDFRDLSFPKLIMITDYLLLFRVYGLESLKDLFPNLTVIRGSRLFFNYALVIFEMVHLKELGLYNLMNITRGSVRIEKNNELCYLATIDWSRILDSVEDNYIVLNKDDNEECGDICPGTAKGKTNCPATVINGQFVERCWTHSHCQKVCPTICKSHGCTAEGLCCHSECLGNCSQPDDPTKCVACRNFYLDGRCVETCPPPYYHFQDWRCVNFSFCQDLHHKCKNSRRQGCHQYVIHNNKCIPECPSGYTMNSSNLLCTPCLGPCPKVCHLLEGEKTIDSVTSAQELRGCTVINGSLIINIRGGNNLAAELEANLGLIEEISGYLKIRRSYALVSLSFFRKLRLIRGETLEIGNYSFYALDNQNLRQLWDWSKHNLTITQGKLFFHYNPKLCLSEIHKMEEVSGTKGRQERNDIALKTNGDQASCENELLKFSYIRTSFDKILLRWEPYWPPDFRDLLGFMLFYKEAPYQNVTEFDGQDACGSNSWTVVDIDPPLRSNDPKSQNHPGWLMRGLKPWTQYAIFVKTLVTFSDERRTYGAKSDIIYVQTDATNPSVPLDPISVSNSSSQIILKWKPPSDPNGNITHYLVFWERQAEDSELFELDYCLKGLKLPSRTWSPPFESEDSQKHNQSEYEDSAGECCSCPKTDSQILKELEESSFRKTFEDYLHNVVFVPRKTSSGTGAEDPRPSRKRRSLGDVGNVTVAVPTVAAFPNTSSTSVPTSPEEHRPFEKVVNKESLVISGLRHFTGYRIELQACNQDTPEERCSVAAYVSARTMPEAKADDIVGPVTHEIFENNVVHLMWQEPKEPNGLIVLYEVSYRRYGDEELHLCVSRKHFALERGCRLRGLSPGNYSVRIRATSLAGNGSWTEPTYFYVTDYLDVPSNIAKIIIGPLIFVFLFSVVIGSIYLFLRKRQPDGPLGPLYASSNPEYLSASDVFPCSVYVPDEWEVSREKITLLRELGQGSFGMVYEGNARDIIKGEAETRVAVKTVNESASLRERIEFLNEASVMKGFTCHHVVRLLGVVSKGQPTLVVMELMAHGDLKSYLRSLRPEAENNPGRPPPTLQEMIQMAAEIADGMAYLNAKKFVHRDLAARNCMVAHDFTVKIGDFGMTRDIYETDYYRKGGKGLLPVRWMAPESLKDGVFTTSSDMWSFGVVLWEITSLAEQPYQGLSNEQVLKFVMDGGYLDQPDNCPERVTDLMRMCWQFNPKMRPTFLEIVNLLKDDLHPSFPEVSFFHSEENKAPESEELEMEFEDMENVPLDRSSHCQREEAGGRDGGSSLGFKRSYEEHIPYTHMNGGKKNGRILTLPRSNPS

As to `CN(C)c1cc2cc(n1)CCCn1cc(c3ccccc31)C1=C(C(=O)NC1=O)c1cn(c3ccccc13)CCC2`, the residual activity in assay [1] turned out to be 102%; in assay [3], 103%; in assay [4] it was 108%; in assay [5], 76%; in assay [6] it was 133%; in [7], 111%. Further, the residual activity is 119% in assay [8]; 106% in assay [9]; 98% in the assay listed under Homo sapiens [10]; 101% in the assay filed under Rattus norvegicus; 108% in the assay listed under Homo sapiens [11]; 93% in assay [12]. Moreover, the IC50 in assay [2] came to 2.4 µM.

On to `O=C1NC(=O)C2=C1c1cn(c3ccccc13)CCCc1ccc(c(N3CCCC3)n1)CCCn1cc2c2ccccc21`, for which the residual activity in [1] was found to be 87%; in [3] it was 100%; in assay [4], 105%; in [5] it was 78%; in assay [6], 121%; in [7], 109%. Also, the residual activity in [8] worked out at 113%; in [9] it was 104%; in the assay listed under Rattus norvegicus it was 99%; in the assay listed under Homo sapiens [11], 111%. For the same compound, the IC50 in assay [2] came out at 2.2 µM.

On to `O=C1NC(=O)C2=C1c1cn(c3ccccc13)CCCc1cc(nc(N3CCCC3)c1)CCCn1cc2c2ccccc21`, for which the residual activity was 110% in assay [1]; 109% in [3]; 117% in assay [4]; 87% in assay [5]; 132% in [6]; 112% in assay [7]. Also, the residual activity in assay [8] was 119%; in [9], 106%; in the assay listed under Homo sapiens [10], 80%; in the assay listed under Rattus norvegicus, 105%; in the assay listed under Homo sapiens [11], 107%; in [12], 91%. Moreover, the half-inhibitory concentration (IC50) in [2] worked out at 1.2 µM.

In the case of `CN(C)c1nc2ccc1CCCn1cc(c3ccccc31)C1=C(C(=O)NC1=O)c1cn(c3ccccc13)CC2`, the residual activity in assay [1] was 91%; in assay [3] it was 89%; in [4], 79%; in assay [5], 107%; in [6], 92%; in assay [7], 107%. For the same compound, the residual activity in assay [8] worked out at 130%; in assay [9], 105%; in the assay listed under Homo sapiens [10], 78%; in the assay filed under Rattus norvegicus, 101%; in the assay filed under Homo sapiens [11], 89%; in assay [12] it was 76%. Besides, in [2], the IC50 was 1.4 µM.
